US20120122860A1, “SOLID FORMS OF SULFONAMIDES AND AMINO ACIDS” (Plexxikon, Inc., priority 2009, published 2012)

How the values were obtained:
[1] = target: B-Raf V600E (Homo sapiens, UniProt P15056, V600E); experiment: Kinase activity assay, B-Raf V600E; type: biochemical; conditions: read-out: activity toward kinase B-Raf V600E, IC50
[2] = target: Kdr (Homo sapiens, UniProt P35968); experiment: Kinase activity assay, Kdr
[3] = target: Src (Homo sapiens, UniProt P12931); experiment: Kinase activity assay, Src
[4] = target: Kit (Homo sapiens, UniProt P10721); experiment: Kinase activity assay, Kit
[5] = target: B-Raf (Homo sapiens, UniProt P15056); experiment: Kinase activity assay, B-Raf; type: biochemical; conditions: read-out: activity toward kinase B-Raf, IC50
[6] = target: C-Raf (Homo sapiens, UniProt P04049); experiment: Kinase activity assay, C-Raf
[7] = target: Btk (Homo sapiens, UniProt Q06187); experiment: Kinase activity assay, Btk
[8] = target: Fms (Homo sapiens, UniProt P07333); experiment: Kinase activity assay, Fms
[9] = target: MAP4K4 (Homo sapiens, UniProt O95819); experiment: Kinase activity assay, MAP4K4

Measured: IC50

Chain of Kdr (P35968 20-1356): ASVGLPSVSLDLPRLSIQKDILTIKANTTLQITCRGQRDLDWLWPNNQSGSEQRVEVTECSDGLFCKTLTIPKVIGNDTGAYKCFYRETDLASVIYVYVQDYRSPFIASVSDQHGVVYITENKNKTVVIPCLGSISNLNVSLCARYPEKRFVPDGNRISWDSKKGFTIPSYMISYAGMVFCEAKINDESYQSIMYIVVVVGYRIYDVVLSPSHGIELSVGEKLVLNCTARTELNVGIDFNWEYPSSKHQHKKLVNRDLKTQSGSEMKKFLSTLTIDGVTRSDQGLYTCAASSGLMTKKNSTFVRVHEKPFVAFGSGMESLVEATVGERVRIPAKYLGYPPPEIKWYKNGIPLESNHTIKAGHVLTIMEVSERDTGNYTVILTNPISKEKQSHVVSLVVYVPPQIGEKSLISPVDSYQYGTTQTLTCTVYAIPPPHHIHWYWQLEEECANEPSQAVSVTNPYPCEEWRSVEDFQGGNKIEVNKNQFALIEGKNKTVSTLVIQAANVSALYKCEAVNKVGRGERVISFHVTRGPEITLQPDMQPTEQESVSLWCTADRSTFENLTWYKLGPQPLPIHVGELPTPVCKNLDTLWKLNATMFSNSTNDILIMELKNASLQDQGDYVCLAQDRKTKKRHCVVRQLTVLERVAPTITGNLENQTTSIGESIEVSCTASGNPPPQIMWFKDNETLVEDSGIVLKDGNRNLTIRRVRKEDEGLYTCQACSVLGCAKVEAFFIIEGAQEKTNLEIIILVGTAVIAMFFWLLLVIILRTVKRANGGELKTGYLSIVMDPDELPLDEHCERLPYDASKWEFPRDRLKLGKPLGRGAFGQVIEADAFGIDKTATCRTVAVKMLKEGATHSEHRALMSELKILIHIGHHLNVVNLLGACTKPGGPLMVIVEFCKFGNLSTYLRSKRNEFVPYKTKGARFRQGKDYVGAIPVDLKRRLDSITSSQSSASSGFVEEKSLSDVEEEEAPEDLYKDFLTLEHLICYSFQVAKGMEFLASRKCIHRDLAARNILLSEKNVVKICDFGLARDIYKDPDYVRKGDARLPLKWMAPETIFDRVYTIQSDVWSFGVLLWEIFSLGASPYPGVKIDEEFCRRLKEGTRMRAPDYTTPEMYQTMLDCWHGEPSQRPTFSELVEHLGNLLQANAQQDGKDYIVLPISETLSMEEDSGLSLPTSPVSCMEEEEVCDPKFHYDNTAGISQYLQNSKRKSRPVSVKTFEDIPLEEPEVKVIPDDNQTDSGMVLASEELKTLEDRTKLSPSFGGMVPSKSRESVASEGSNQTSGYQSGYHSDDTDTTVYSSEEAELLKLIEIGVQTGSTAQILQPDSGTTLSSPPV
Chain of Fms (P07333 20-972): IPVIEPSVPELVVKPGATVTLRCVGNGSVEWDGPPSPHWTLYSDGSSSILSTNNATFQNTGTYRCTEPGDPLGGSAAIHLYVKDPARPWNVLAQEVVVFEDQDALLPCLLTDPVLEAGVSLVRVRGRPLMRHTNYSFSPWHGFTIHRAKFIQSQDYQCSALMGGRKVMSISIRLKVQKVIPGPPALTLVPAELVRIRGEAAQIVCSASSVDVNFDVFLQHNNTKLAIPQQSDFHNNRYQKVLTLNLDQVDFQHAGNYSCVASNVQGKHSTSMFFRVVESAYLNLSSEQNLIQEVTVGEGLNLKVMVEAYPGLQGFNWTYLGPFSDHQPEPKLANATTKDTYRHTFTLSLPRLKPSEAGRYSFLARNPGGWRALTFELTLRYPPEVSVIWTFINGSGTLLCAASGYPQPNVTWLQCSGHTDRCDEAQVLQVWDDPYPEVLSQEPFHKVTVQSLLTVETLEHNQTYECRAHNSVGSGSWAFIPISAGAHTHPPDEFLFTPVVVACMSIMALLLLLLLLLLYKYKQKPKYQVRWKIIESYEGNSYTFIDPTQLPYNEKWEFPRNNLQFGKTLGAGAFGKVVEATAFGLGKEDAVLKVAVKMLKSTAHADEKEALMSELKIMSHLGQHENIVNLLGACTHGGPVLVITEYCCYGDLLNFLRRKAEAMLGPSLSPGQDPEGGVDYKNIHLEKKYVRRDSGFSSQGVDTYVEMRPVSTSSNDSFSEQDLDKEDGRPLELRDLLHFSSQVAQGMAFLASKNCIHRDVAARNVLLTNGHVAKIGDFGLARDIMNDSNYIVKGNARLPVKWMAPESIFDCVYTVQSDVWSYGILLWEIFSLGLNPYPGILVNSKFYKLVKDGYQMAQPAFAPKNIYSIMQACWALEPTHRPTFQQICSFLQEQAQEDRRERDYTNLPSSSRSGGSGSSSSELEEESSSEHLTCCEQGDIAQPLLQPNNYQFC
Chain of Btk (Q06187 whole entry): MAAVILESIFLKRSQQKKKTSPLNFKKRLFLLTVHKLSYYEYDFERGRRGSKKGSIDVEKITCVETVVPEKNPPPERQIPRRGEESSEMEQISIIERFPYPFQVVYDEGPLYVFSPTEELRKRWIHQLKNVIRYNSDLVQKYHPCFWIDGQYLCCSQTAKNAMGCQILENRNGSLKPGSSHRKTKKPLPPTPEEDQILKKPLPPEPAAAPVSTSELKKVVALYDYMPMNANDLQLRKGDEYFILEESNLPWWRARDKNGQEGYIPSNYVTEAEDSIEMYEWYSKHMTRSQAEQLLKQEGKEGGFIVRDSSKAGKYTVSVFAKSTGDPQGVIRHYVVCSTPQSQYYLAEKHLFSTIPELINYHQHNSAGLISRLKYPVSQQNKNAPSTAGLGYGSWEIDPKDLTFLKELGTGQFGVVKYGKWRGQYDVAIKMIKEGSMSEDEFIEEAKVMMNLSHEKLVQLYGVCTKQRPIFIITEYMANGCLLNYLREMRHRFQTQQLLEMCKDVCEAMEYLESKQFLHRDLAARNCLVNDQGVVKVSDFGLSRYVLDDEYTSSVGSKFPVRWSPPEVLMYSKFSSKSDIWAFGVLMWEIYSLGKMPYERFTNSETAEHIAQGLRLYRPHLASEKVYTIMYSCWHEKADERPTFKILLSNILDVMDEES
Chain of C-Raf (P04049 whole entry): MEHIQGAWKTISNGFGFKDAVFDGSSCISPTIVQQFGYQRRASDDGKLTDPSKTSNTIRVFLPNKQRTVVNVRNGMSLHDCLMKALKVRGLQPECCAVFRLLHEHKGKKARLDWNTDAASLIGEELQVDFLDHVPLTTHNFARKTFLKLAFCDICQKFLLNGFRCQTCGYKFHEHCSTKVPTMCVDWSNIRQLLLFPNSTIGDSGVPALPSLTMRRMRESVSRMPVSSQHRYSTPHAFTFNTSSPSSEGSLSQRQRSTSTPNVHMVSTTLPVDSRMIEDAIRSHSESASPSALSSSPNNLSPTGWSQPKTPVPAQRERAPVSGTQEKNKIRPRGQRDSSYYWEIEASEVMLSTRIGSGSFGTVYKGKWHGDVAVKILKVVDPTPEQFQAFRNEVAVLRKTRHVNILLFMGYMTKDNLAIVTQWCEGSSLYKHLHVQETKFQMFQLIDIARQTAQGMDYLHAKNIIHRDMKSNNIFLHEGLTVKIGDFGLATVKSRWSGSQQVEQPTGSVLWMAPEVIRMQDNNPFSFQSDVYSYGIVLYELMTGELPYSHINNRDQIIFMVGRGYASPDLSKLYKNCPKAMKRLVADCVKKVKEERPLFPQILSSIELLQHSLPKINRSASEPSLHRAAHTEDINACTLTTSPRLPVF
Chain of Kit (P10721 26-976): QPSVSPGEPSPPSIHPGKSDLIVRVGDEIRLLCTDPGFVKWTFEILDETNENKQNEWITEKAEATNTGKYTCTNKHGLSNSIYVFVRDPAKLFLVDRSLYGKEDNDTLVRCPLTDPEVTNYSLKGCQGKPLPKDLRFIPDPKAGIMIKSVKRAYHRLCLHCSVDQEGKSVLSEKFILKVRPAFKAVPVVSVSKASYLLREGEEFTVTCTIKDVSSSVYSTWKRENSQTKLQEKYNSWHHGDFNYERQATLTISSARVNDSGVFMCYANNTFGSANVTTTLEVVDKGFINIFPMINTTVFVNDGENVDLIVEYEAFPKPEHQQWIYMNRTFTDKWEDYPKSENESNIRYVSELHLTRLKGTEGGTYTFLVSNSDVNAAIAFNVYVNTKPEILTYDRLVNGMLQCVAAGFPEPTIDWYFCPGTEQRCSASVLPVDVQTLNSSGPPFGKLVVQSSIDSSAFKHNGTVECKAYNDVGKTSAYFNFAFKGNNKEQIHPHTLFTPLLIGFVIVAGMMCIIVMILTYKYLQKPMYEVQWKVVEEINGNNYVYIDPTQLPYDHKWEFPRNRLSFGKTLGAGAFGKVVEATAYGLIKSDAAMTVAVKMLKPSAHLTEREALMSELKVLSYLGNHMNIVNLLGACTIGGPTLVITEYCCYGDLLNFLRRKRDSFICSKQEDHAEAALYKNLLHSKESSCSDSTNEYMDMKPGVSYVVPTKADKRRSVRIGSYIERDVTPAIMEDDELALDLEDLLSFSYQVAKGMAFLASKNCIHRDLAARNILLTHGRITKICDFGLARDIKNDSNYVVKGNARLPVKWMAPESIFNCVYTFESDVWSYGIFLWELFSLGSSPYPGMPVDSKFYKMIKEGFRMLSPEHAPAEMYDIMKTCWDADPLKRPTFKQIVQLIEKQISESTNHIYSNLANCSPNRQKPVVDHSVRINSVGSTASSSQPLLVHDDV
Chain of Src (P12931 whole entry): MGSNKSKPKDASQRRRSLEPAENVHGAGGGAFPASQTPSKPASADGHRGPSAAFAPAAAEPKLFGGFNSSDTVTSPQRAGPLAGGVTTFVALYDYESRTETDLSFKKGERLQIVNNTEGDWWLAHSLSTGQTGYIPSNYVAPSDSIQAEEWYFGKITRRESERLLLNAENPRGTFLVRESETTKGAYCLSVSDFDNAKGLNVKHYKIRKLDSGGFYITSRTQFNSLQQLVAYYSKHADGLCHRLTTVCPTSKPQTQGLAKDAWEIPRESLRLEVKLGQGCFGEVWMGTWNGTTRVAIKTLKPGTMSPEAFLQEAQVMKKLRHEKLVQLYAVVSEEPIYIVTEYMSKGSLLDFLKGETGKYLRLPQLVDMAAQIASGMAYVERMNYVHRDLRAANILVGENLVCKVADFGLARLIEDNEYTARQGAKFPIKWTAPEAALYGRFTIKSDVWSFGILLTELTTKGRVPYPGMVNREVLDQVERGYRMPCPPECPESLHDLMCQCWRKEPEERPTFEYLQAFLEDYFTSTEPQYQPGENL

Cn1cc(-c2cnc3[nH]cc(C(=O)c4cc(NS(=O)(=O)c5cccc(C(F)(F)F)c5)ccc4F)c3c2)cn1 [P-2101, N-{4-Fluoro-3-[5-(1-methyl-1H-pyrazol-4-yl)-1H-pyrrolo[2,3-b]pyridine-3-carbonyl]-phenyl}-3-trifluoromethyl-benzenesulfonamide]
not listed: [9]
≤ 10 µM: all other assays above

CCCS(=O)(=O)Nc1ccc(F)c(C(=O)c2c[nH]c3ncc(-c4ccc(OCCCN(C)C)nc4)cc23)c1F [P-2178, Propane-1-sulfonic acid (3-{5-[6-(3-dimethylamino-propoxy)-pyridin-3-yl]-1H-pyrrolo[2,3-b]pyridine-3-carbonyl}-2,4-difluoro-phenyl)-amide]
not listed: [9]
≤ 10 µM: all other assays above

CCCS(=O)(=O)Nc1ccc(F)c(C(=O)c2c[nH]c3ncc(-c4ccc(OC)nc4OC)cc23)c1F [P-2184, Propane-1-sulfonic acid {3-[5-(2,6-dimethoxy-pyridin-3-yl)-1H-pyrrolo[2,3-b]pyridine-3-carbonyl]-2,4-difluoro-phenyl}-amide]
not listed: [6] | [9]
≤ 10 µM: all other assays above

CCCS(=O)(=O)Nc1ccc(F)c(C(=O)c2c[nH]c3ncc(-c4cnn(Cc5ccccc5)c4)cc23)c1F [P-2190, Propane-1-sulfonic acid {3-[5-(1-benzyl-1H-pyrazol-4-yl)-1H-pyrrolo[2,3-b]pyridine-3-carbonyl]-2,4-difluoro-phenyl}-amide]
not listed: [6] | [9]
≤ 10 µM: all other assays above

CCCS(=O)(=O)Nc1ccc(F)c(C(=O)c2c[nH]c3ncc(-c4ccc(S(N)(=O)=O)cc4)cc23)c1F [P-2194, 4-{3-[2,6-Difluoro-3-(propane-1-sulfonylamino)-benzoyl]-1H-pyrrolo[2,3-b]pyridin-5-yl}-benzenesulfonamide]
not listed: [6] | [9]
≤ 10 µM: all other assays above

CCCS(=O)(=O)Nc1ccc(F)c(C(=O)c2c[nH]c3ncc(-c4ccc(C#CCN(CC)CC)nc4)cc23)c1F [P-2222, Propane-1-sulfonic acid (3-{5-[6-(3-diethylamino-prop-1-ynyl)-pyridin-3-yl]-1H-pyrrolo[2,3-b]pyridine-3-carbonyl}-2,4-difluoro-phenyl)-amide]
≤ 10 µM: all assays above

CCCS(=O)(=O)Nc1ccc(F)c(C(=O)c2c[nH]c3ncc(-c4ccc(N(C)C)nc4)cc23)c1F [P-2229, Propane-1-sulfonic acid {3-[5-(6-dimethylamino-pyridin-3-yl)-1H-pyrrolo[2,3-b]pyridine-3-carbonyl]-2,4-difluoro-phenyl}-amide]
not listed: [8]
≤ 10 µM: all other assays above

CCS(=O)(=O)Nc1ccc(F)c(C(=O)c2c[nH]c3ncc(-c4ccc(F)cc4)cc23)c1F [P-2270, Ethanesulfonic acid {2,4-difluoro-3-[5-(4-fluoro-phenyl)-1H-pyrrolo[2,3-b]pyridine-3-carbonyl]-phenyl}-amide]
not listed: [6]
≤ 10 µM: all other assays above

O=C(c1c(F)ccc(NS(=O)(=O)C2CC2)c1F)c1c[nH]c2ncc(-c3ccc(Cl)cc3)cc12 [P-2350, Cyclopropanesulfonic acid {3-[5-(4-chloro-phenyl)-1H-pyrrolo[2,3-b]pyridine-3-carbonyl]-2,4-difluoro-phenyl}-amide]
not listed: [1] | [5] | [9]
≤ 10 µM: all other assays above

O=C(c1c(F)ccc(NS(=O)(=O)C2CC2)c1F)c1c[nH]c2ncc(-c3ccc(F)cc3)cc12 [P-2351, Cyclopropanesulfonic acid {2,4-difluoro-3-[5-(4-fluoro-phenyl)-1H-pyrrolo[2,3-b]pyridine-3-carbonyl]-phenyl}-amide]
not listed: [6] | [9]
≤ 10 µM: all other assays above

CCCS(=O)(=O)Nc1ccc(F)c(C(=O)c2c[nH]c3ncc(-c4cnn(C)c4)cc23)c1 [P-2431, Propane-1-sulfonic acid {4-fluoro-3-[5-(1-methyl-1H-pyrazol-4-yl)-1H-pyrrolo[2,3-b]pyridine-3-carbonyl]-phenyl}-amide]
not listed: [9]
≤ 10 µM: all other assays above

O=C(c1cccc(NS(=O)(=O)C2CCCCC2)c1)c1c[nH]c2ncc(F)cc12 [P-2462, Cyclohexanesulfonic acid [3-(5-fluoro-1H-pyrrolo[2,3-b]pyridine-3-carbonyl)-phenyl]-amide]
≤ 10 µM: [9] | [7]
